Results reported in patent US20230108699A1, “HEART EXTRACELLULAR MATRIX-DERIVED SCAFFOLD FOR CULTURE AND TRANSPLANTATION OF CARDIAC ORGANOID AND METHOD OF PREPARING THE SAME” (CELLARTGEN INC., priority 2020, published 2023).

Tested on: human cardiac organoid cultured in the HEM hydrogel
Assay: Drug reactivity of HEM scaffold-based human cardiac organoid by calcium imaging
Assay type: cell-based
Settings: 7th day of culture, HEM hydrogel 4 mg/ml
Procedure: In order to check the reactivity of the human cardiac organoid cultured in the HEM hydrogel (4 mg/ml) to drugs, treatment with two representative drugs (isoproterenol and propranolol) affecting the heart rate was performed on the 7th day of culture, and reaction of the organoid thereto was checked through calcium imaging.

SMILES | beating of cardiac organoid (propranolol 10 μM) | beating of cardiac organoid (isoproterenol 1 μM)
CC(C)NCC(O)COc1cccc2ccccc12 (centres unmarked) [propranolol] | decreased | –
CC(C)NCC(O)c1ccc(O)c(O)c1 (centres unmarked) [isoproterenol] | – | increased
